Several values for one entry are separate records, joined by “and”; a condition that tells them apart may be missing. Equal entries are not always repeated.
Test system: 885724-159-R-J1-PDC complex spheroid viability
Test: Anticancer human tumor 885724-159-R-J1-PDC patient-derived pancreatic adenocarcinoma cell line growth inhibition [GQUAD]
Conditions: for viability, T/C: stronger effect = lower value
From the text: DNA G-quadruplex Stabilizer Agents in Combinations in Complex Spheroids
A high-throughput screen of multi-cell type tumor spheroids was designed to identify active combinations of DNA G-quadruplex stabilizer agents and targeted small molecules. Complex spheroids include a stromal component modeled by human endothelial cells (HUVEC) and fibroblasts modeled by human mesenchymal stem cells (MSCs). The concentration ranges selected for each drug and investigational agent were based upon clinically achievable concentrations if the clinical Cmax of the agent was known.
Compounds. The drugs and investigational agents: pidnarulex (CX-5461; NSC782164), APTO-253 (NSC789042), BRACO-19 (NSC847499), peposertib (NSC802822), ceralasertib (NSC780249), elimusertib (NSC800525), camonsertib (NSC841442), AZD-1390 (NSC803789), olaparib (NSC753686), talazoparib (NSC767125), ART-558 (NSC835418), sotorasib (NSC818433), MRTX-1133 (NSC836407), SN-38 (NSC673596), topotecan (NSC609699), etoposide (NSC141540), doxorubicin (NSC123127), gemcitabine (NSC613327), 5-fluorouracil (NSC19893), paclitaxel (NSC125973), vemurafenib (NSC761431), panobinostat (NSC761190), R-306465 (JNJ-16241199; NSC773264), adavosertib (NSC754352), TP-3654 (NSC805149), carboplatin (NSC241240), KSQ-4279 (NSC840948), and staurosporine (NSC755774) were obtained from the National Cancer Institute (NCI) Developmental Therapeutics Program Chemical Repository (34). The FDA-approved anticancer drug set is available from the NCI Developmental Therapeutics Program. […] The stock solutions were prepared in dimethyl sulfoxide (DMSO, Sigma-Aldrich, St. Louis, MO, cat. D2650) at 800-fold the tested concentration and stored at -70 degrees C prior to their use. All drugs and investigational agents were tested over a range starting from a high concentration at or near the clinical Cmax and decreasing in half-log increments. If the clinical Cmax for an agent had not been determined, the highest concentration tested was 10 microM.
2.3 Cell Culture. All cells were maintained in an incubator at 37 degrees C and 5% CO2 with 95% humidity. The PDC lines were cultured according to standard operating procedures established by the NCI PDMR. All PDCs were thawed and cultured in Matrigel-coated flasks prepared with a working solution of 1X Ham's F-12 nutrient mix, without supplementation (Invitrogen, cat. 11765054), 100 U/mL penicillin-streptomycin (Invitrogen, cat. 15140122), and 2.5% Matrigel (Corning Inc., cat. 354248) for the first three passages. The 857933-349-R-J2-PDC line was cultured in 6C/Colon 1B media, which includes advanced DMEM/F-12 (Thermo Fisher Scientific, cat. 12634028), 10 mM HEPES (Thermo Fisher Scientific, cat. 15630080), 1X GlutaMAX supplement (Thermo Fisher Scientific, cat. 35050061), 0.1 mg/mL primocin (InvivoGen, cat. ant-pm-2), 10% defined fetal bovine serum, heat inactivated (HyClone Laboratories Inc., cat. SH30070.03HI), 50% L-WRN conditioned media (ATCC, cat. CRL-3276), 1.25 mM N-Acetyl-L-cysteine (Sigma-Aldrich, cat. A9165), 10 mM nicotinamide (Sigma-Aldrich, cat. N0636), 1X B-27 supplement (Thermo Fisher Scientific, cat. 17504044), 1X N-2 supplement (Thermo Fisher Scientific, cat. 17502048), 10 microM Y-27632 dihydrochloride (Tocris Bioscience, cat. 1254), and 50 ng/mL human EGF recombinant protein (Thermo Fisher Scientific, cat. PHG0311). The 485176-168-R4-J1-PDC line was cultured in Panc media, which includes all 6C/Colon 1B media components plus 100 ng/mL human FGF-10 (Thermo Fisher Scientific, cat. 100-26), 500 nM SB-431542 (Selleckchem, cat. S1067), and gastrin (Tocris, cat. 3006).
[…]

[1] = curve of first compound, second compound 0.0316 µM
[2] = curve of first compound, second compound 0.1 µM
[3] = curve of first compound, second compound 0.316 µM
[4] = curve of first compound, second compound 1 µM
[5] = curve of first compound, second compound 3.16 µM
[6] = curve of first compound, second compound 10 µM
[7] = second compound 0.0316 µM, first compound 0.0316 µM
[8] = second compound 0.0316 µM, first compound 0.1 µM
[9] = second compound 0.0316 µM, first compound 0.316 µM
[10] = second compound 0.0316 µM, first compound 1 µM
[11] = second compound 0.0316 µM, first compound 3.16 µM
[12] = second compound 0.0316 µM, first compound 10 µM
[13] = second compound 0.1 µM, first compound 0.0316 µM
[14] = second compound 0.1 µM, first compound 0.1 µM
[15] = second compound 0.1 µM, first compound 0.316 µM
[16] = second compound 0.1 µM, first compound 1 µM
[17] = second compound 0.1 µM, first compound 3.16 µM
[18] = second compound 0.1 µM, first compound 10 µM
[19] = second compound 0.316 µM, first compound 0.0316 µM
[20] = second compound 0.316 µM, first compound 0.1 µM
[21] = second compound 0.316 µM, first compound 0.316 µM
[22] = second compound 0.316 µM, first compound 1 µM
[23] = second compound 0.316 µM, first compound 3.16 µM
[24] = second compound 0.316 µM, first compound 10 µM
[25] = second compound 1 µM, first compound 0.0316 µM
[26] = second compound 1 µM, first compound 0.1 µM
[27] = second compound 1 µM, first compound 0.316 µM
[28] = second compound 1 µM, first compound 1 µM
[29] = second compound 1 µM, first compound 3.16 µM
[30] = second compound 1 µM, first compound 10 µM
[31] = second compound 3.16 µM, first compound 0.0316 µM
[32] = second compound 3.16 µM, first compound 0.1 µM
[33] = second compound 3.16 µM, first compound 0.316 µM
[34] = second compound 3.16 µM, first compound 1 µM
[35] = second compound 3.16 µM, first compound 3.16 µM
[36] = second compound 3.16 µM, first compound 10 µM
[37] = second compound 10 µM, first compound 0.0316 µM
[38] = second compound 10 µM, first compound 0.1 µM
[39] = second compound 10 µM, first compound 0.316 µM
[40] = second compound 10 µM, first compound 1 µM
[41] = second compound 10 µM, first compound 3.16 µM
[42] = second compound 10 µM, first compound 10 µM
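Further: spheroids exposed to agents for seven days before readout.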
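Wherever viability, T/C is given: percent of vehicle control viability where 100% = DMSO wells.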

O=c1[nH]cc(F)c(=O)[nH]1 + Cc1cnc(CNC(=O)c2c(=O)c3ccc(N4CCCN(C)CC4)nc3n3c2sc2ccccc23)cn1 gave an IC50 [1] of over 10 µM, an IC50 [2] of over 10 µM and an IC50 [3] of over 10 µM. For the same molecule, the IC50 [4] was over 10 µM, the IC50 [5] was over 10 µM and the IC50 [6] was over 10 µM. For the same molecule, the viability, T/C [7] was 108%, the viability, T/C [8] was 107% and the viability, T/C [9] was 116%. It also gave a viability, T/C [10] of 118%, a viability, T/C [11] of 87.1% and a viability, T/C [12] of 88.8%. For the same molecule, the viability, T/C [13] was 103%, the viability, T/C [14] was 107% and the viability, T/C [15] was 112%. The viability, T/C [16] was 116%, the viability, T/C [17] was 92.1% and the viability, T/C [18] was 102%. The viability, T/C [19] was 99.2%, the viability, T/C [20] was 109% and the viability, T/C [21] was 91.5%. For the same molecule, the viability, T/C [22] was 103%, the viability, T/C [23] was 96.4% and the viability, T/C [24] was 97.1%. For the same molecule, the viability, T/C [25] was 84.2%, the viability, T/C [26] was 84.1% and the viability, T/C [27] was 100%. It also gave a viability, T/C [28] of 87.1%, a viability, T/C [29] of 86.2% and a viability, T/C [30] of 83%. It also gave a viability, T/C [31] of 78.2%, a viability, T/C [32] of 89.7% and a viability, T/C [33] of 90.5%. The viability, T/C [34] was 78.1%, the viability, T/C [35] was 83.8% and the viability, T/C [36] was 84.4%. The viability, T/C [37] was 81.7%, the viability, T/C [38] was 77% and the viability, T/C [39] was 74.8%. The viability, T/C [40] was 84%, the viability, T/C [41] was 77.8% and the viability, T/C [42] was 72.2%.

For Cc1[nH]c2ccccc2c1CCNCc1ccc(/C=C/C(=O)NO)cc1, the viability, T/C (compound 0.000999 µM) was 92.3% and 106% and 93.5%, the viability, T/C (compound 0.00316 µM) was 91.4% and 98.9% and 103% and the viability, T/C (compound 0.00999 µM) was 95.6% and 86.5% and 91.7%. The viability, T/C (compound 0.0316 µM) was 108% and 83.9% and 98.7%, the viability, T/C (compound 0.0999 µM) was 95.6% and 86.5% and 74.5% and the viability, T/C (compound 0.316 µM) was 47.5% and 47.9% and 42.7%. The IC50 (curve of compound) was 0.298 µM and > 0.316 µM and 0.242 µM.

For COc1cc(C2c3cc4c(cc3C(OC3OC5COC(C)OC5C(O)C3O)C3COC(=O)C23)OCO4)cc(OC)c1O (stereo unspecified) + Cc1[nH]c2ccc(F)cc2c1-c1nc2c3cccnc3c3ncccc3c2[nH]1, the IC50 [1] was over 10 µM, the IC50 [2] was over 10 µM and the IC50 [3] was over 10 µM. The IC50 [4] was over 10 µM, the IC50 [5] was under 0.0316 µM and the IC50 [6] was over 10 µM. The viability, T/C [7] was 92.8%, the viability, T/C [8] was 88.7% and the viability, T/C [9] was 93.8%. It also gave a viability, T/C [10] of 94.9%, a viability, T/C [11] of 79.2% and a viability, T/C [12] of 88.5%. The viability, T/C [13] was 102%, the viability, T/C [14] was 117% and the viability, T/C [15] was 93.1%. It also gave a viability, T/C [16] of 103%, a viability, T/C [17] of 80.2% and a viability, T/C [18] of 80.2%. For the same molecule, the viability, T/C [19] was 103%, the viability, T/C [20] was 87.2% and the viability, T/C [21] was 80.7%. It also gave a viability, T/C [22] of 83.2%, a viability, T/C [23] of 79.7% and a viability, T/C [24] of 72.3%. It also gave a viability, T/C [25] of 89.5%, a viability, T/C [26] of 69.8% and a viability, T/C [27] of 75%. The viability, T/C [28] was 69.1%, the viability, T/C [29] was 77.8% and the viability, T/C [30] was 61%. The viability, T/C [31] was 53.2%, the viability, T/C [32] was 32.2% and the viability, T/C [33] was 45.4%. It also gave a viability, T/C [34] of 43.7%, a viability, T/C [35] of 35.8% and a viability, T/C [36] of 26.5%. The viability, T/C [37] was 68.3%, the viability, T/C [38] was 69.3% and the viability, T/C [39] was 70.9%. For the same molecule, the viability, T/C [40] was 68%, the viability, T/C [41] was 70.6% and the viability, T/C [42] was 55.4%.

From PubChem BioAssay AID2060502 (Molecular Pharmacology Branch, DTP, NCI, 2025)
